Literature values in patent US11013708B2, “Prevention of psychotic disorders and/or treatment of psychotic symptoms” (Orygen Youth Health Research Centre, priority 2008, dated 2021).

What was measured:
[1] = test system: first-episode psychosis patients; details: in vivo 1H-MRS
ultra-high-risk groups = details: risperidone and cognitive therapy for 6 months vs supportive counselling

In the case of `CC/C=C\C/C=C\C/C=C\C/C=C\C/C=C\CCCC(=O)O` [EPA, all cis (or all z) 5,8, 11, 14, 17-eicosapentanoic acid], the “glutathione in temporal lobes” value [1] is listed as “can increase glutathione”.

For `Cc1nc2n(c(=O)c1CCN1CCC(c3noc4cc(F)ccc34)CC1)CCCC2` [risperidone], the “efficacy of preventive intervention vs comparator” value (ultra-high-risk groups) is listed as “significantly more effective than supportive counselling at end of intervention, but not at 12-month follow-up”.
